Patent US7655442B2, “Method for stabilizing macrolide compounds” (Eisai R&D Management Co., Ltd., priority 2004, dated 2010)
Read-outs that look alike come from different tables or passages of the source.

Key:
[1] = format: physicochemical
Description: The macrolide compound 11107B was dissolved in Dulbecco's PBS (−) in a concentration of 0.1 mg/mL, and β-CD in concentrations of 10, 3, 1, and 0.3 mg/mL. The 11107B solution and β-CD solution were mixed in equal volumes, and incubation was immediately begun in a 40° C. thermostatic incubator. The solution was sampled at the start (0 hour) and after 1, 2, 4 and 6 hours had elapsed, the samples were analyzed by HPLC under the analysis conditions (A) of Example 1, and the concentration of the 11107B was calculated. Since the plot of the 11107B concentration versus elapsed time was substantially linear, it was concluded that decomposition was occurring in pseudo first-order reaction, and the apparent decomposition rate constant kobs was calculated from the slope thereof. kobs was termed k0 when no β-CD was prevent. According to a report by Ma et al. (J. Pharm. Sci. (2000), 89 (2), 275-287), 1/(k0-kobs) was plotted against the inverse of the β-CD concentration, kc, which is kobs when a large excess of β-CD was present, was calculated from an intercept thereof, and the stabilization constant Kc was calculated from the slope.

[2] = Effect of β-CD and methylated β-CD on stabilization of 11107B in Dulbecco's PBS (-) at 25° C. (HPLC purity); format: physicochemical
Description: (§1) <Calculation Equation> 11107B purity(%)=[peak surface area value of 11107B/(sum of peak surface area value of 11107B+peak surface area value of impurities and decomposition products)]×100
The macrolide compound 11107B and β-CD or methylated β-CD were dissolved in Dulbecco's PBS (−) in concentrations of 0.1 mg/mL and 10 mg/mL, respectively. The 11107B solution and β-CD solution were mixed in equal volumes, and incubation was immediately begun in thermostatic incubator at 25° C. The solution was sampled at the start (0 hour) and after 24, 48 and 120 hours had elapsed, and the samples were analyzed by HPLC under the following analysis conditions (B). The purity of the 11107B was calculated from the equation in Example 1 using the resulting chromatogram.
<HPLC Analysis Conditions (B)>
Column: Develosil ODS UG-3, 4.6×50 mm, 3 μm (made by Nomura Chemical)
Column temperature: 40° C.
Detection wavelength: 240 nm
Eluate: water/methanol gradient
• A=water, B=methanol • 45-55% B (0 to 5 minutes), 55% B (5 to 13 minutes) • 55-70% B (13 to 21 minutes), 45% B (21 to 25 minutes) Retention time: 13 minutes (11107B)

[3] = Effects of various cyclodextrins on stabilization of macrolide compound 11107B in Dulbecco's PBS (-) at 25° C. (HPLC purity); format: physicochemical
Description: The macrolide compound 11107B (hereinafter sometimes abbreviated as 11107B) and various cyclodextrins were dissolved in concentrations of 0.1 mg/mL and 10 mg/mL, respectively, in Dulbecco's PBS (−). The 11107B solution and cyclodextrin solution were mixed in equal volumes, and incubation was immediately begun in at thermostatic incubator at 25° C. The solution was sampled at the start (0 hour) and after 24 and 48 hours had elapsed, the samples were analyzed by high performance liquid chromatography (HPLC) under the following analysis conditions (A), and the purity of the 11107B was calculated from the following equation using the chromatogram thus obtained.
<HPLC Analysis Conditions (A)>
Column: L-column, 4.6×150 mm, Chemicals Evaluation and Research Institute
Column temperature: 35° C.
Detection wavelength: 241 nm
Mobile phase A: 0.1% (v/v) formic acid•10% (v/v) acetonitrile
Mobile phase B: 0.1% (v/v) formic acid•90% (v/v) acetonitrile
Gradient program: B=10% (start)→B=40% (15 minutes)→B=100% (20 minutes)→B=10% (20.01 minutes)→B=10% (23 minutes, stop)<
as §1

[4] = format: physicochemical; settings: for Purity of macorolide compound 11107B: freeze-dried preparation
Description: as §1
Lactose monohydrate was dissolved in purified water in a concentration of 10 mg/mL and HP-β-CD in concentrations of 0, 10 and 200 mg/mL. The macrolide compound 11107B was dissolved in a concentration of 0.1 mg/mL in each of these three types of solution. 1 mL of each solution was put into vials and freeze-dried. The freeze-dried preparations thus obtained were stored for one month at −20° C., 40° C. and 60° C., after which 1 mL of 50% acetonitrile aqueous solution was added to each vial to dissolve the preparation. This product was analyzed by HPLC analysis under the conditions (A) of Example 1, and the purity of the 11107B was calculated according to the equation of Example 1.

[5] = β-CD concentration 0.15 mg/mL, PBS (-), 40° C.
[6] = β-CD concentration 0.5 mg/mL, PBS (-), 40° C.
[7] = β-CD concentration 1.5 mg/mL, PBS (-), 40° C.
[8] = β-CD concentration 5 mg/mL, PBS (-), 40° C.

CCC(O)C(C)C1OC1CC(C)/C=C/C=C(\C)C1OC(=O)CC(O)CCC(C)(O)C(OC(C)=O)/C=C/C1C (stereo not drawn) [11107B, (8E,12E,14E)-7-acetoxy-3,6,21-trihydroxy-6,10,12,16,20-pentamethyl-18,19-epoxytricosa-8,12,14-trien-11-olide]
stabilization constant Kc ([1]; 0.05 mg/mL): ≥ 1500
k0 (kobs when no β-CD was present) ([1]; PBS (-), 40° C., estimated): 0.152 h⁻¹
kc (kobs when a large excess of β-CD was present) ([1]; from intercept of 1/(k0-kobs) versus inverse of β-CD concentration, PBS (-), 40° C.): 0.004 h⁻¹
kobs (apparent decomposition rate constant) ([1]; β-CD concentration 0 mg/mL, PBS (-), 40° C.): 0.152 h⁻¹
1/(k0 − kobs) [1, 5]: 39.057
k0 − kobs [1, 5]: 0.026
kobs (apparent decomposition rate constant) [1, 5]: 0.126 h⁻¹
1/(k0 − kobs) [1, 6]: 16.736
k0 − kobs [1, 6]: 0.060
kobs (apparent decomposition rate constant) [1, 6]: 0.092 h⁻¹
1/(k0 − kobs) [1, 7]: 9.971
k0 − kobs [1, 7]: 0.100
kobs (apparent decomposition rate constant) [1, 7]: 0.052 h⁻¹
1/(k0 − kobs) [1, 8]: 7.590
k0 − kobs [1, 8]: 0.132
kobs (apparent decomposition rate constant) [1, 8]: 0.020 h⁻¹
decomposition rate of included 11107B relative to 11107B that was not included ([1]; β-CD inclusion, PBS (-), 40° C.): 1/30
Purity of macorolide compound 11107B ([2]; CD not added, 0 h): 98%
Purity of macorolide compound 11107B ([2]; CD not added, 24 h): 59%
Purity of macorolide compound 11107B ([2]; CD not added, 48 h): 34%
Purity of macorolide compound 11107B ([2]; CD not added, 120 h): 3%
Purity of macorolide compound 11107B ([2]; methylated β-CD (10 mg/mL solution mixed in equal volume with 0.1 mg/mL 11107B), 0 h): 98%
Purity of macorolide compound 11107B ([2]; methylated β-CD (10 mg/mL solution mixed in equal volume with 0.1 mg/mL 11107B), 24 h): 95%
Purity of macorolide compound 11107B ([2]; methylated β-CD (10 mg/mL solution mixed in equal volume with 0.1 mg/mL 11107B), 48 h): 92%
Purity of macorolide compound 11107B ([2]; methylated β-CD (10 mg/mL solution mixed in equal volume with 0.1 mg/mL 11107B), 120 h): 80%
Purity of macorolide compound 11107B ([2]; β-CD (10 mg/mL solution mixed in equal volume with 0.1 mg/mL 11107B), 0 h): 98%
Purity of macorolide compound 11107B ([2]; β-CD (10 mg/mL solution mixed in equal volume with 0.1 mg/mL 11107B), 24 h): 95%
Purity of macorolide compound 11107B ([2]; β-CD (10 mg/mL solution mixed in equal volume with 0.1 mg/mL 11107B), 48 h): 90%
Purity of macorolide compound 11107B ([2]; β-CD (10 mg/mL solution mixed in equal volume with 0.1 mg/mL 11107B), 120 h): 74%
Purity of macorolide compound 11107B ([3]; CD not added, 0 h, Dulbecco's PBS (-)): 99%
Purity of macorolide compound 11107B ([3]; CD not added, 24 h, Dulbecco's PBS (-)): 62%
Purity of macorolide compound 11107B ([3]; CD not added, 48 h, Dulbecco's PBS (-)): 35%
Purity of macorolide compound 11107B ([3]; HP-α-CD (10 mg/mL solution mixed in equal volume with 0.1 mg/mL 11107B), 0 h, PBS (-)): 99%
Purity of macorolide compound 11107B ([3]; HP-α-CD (10 mg/mL solution mixed in equal volume with 0.1 mg/mL 11107B), 24 h, PBS (-)): 71%
Purity of macorolide compound 11107B ([3]; HP-α-CD (10 mg/mL solution mixed in equal volume with 0.1 mg/mL 11107B), 48 h, PBS (-)): 47%
Purity of macorolide compound 11107B ([3]; HP-β-CD (10 mg/mL solution mixed in equal volume with 0.1 mg/mL 11107B), 0 h, PBS (-)): 100%
Purity of macorolide compound 11107B ([3]; HP-β-CD (10 mg/mL solution mixed in equal volume with 0.1 mg/mL 11107B), 24 h, PBS (-)): 93%
Purity of macorolide compound 11107B ([3]; HP-β-CD (10 mg/mL solution mixed in equal volume with 0.1 mg/mL 11107B), 48 h, PBS (-)): 86%
Purity of macorolide compound 11107B ([3]; HP-γ-CD (10 mg/mL solution mixed in equal volume with 0.1 mg/mL 11107B), 0 h, PBS (-)): 99%
Purity of macorolide compound 11107B ([3]; HP-γ-CD (10 mg/mL solution mixed in equal volume with 0.1 mg/mL 11107B), 24 h, PBS (-)): 83%
Purity of macorolide compound 11107B ([3]; HP-γ-CD (10 mg/mL solution mixed in equal volume with 0.1 mg/mL 11107B), 48 h, PBS (-)): 67%
Purity of macorolide compound 11107B ([3]; α-CD (10 mg/mL solution mixed in equal volume with 0.1 mg/mL 11107B), 0 h, PBS (-)): 99%
Purity of macorolide compound 11107B ([3]; α-CD (10 mg/mL solution mixed in equal volume with 0.1 mg/mL 11107B), 24 h, PBS (-)): 71%
Purity of macorolide compound 11107B ([3]; α-CD (10 mg/mL solution mixed in equal volume with 0.1 mg/mL 11107B), 48 h, PBS (-)): 47%
Purity of macorolide compound 11107B ([3]; β-CD (10 mg/mL solution mixed in equal volume with 0.1 mg/mL 11107B), 0 h, PBS (-)): 100%
Purity of macorolide compound 11107B ([3]; β-CD (10 mg/mL solution mixed in equal volume with 0.1 mg/mL 11107B), 24 h, PBS (-)): 95%
Purity of macorolide compound 11107B ([3]; β-CD (10 mg/mL solution mixed in equal volume with 0.1 mg/mL 11107B), 48 h, PBS (-)): 90%
Purity of macorolide compound 11107B ([3]; γ-CD (10 mg/mL solution mixed in equal volume with 0.1 mg/mL 11107B), 0 h, PBS (-)): 100%
Purity of macorolide compound 11107B ([3]; γ-CD (10 mg/mL solution mixed in equal volume with 0.1 mg/mL 11107B), 24 h, PBS (-)): 88%
Purity of macorolide compound 11107B ([3]; γ-CD (10 mg/mL solution mixed in equal volume with 0.1 mg/mL 11107B), 48 h, PBS (-)): 77%
stability in a solid form in a freeze-dried preparation on addition of cyclodextrin [4]: sufficiently stabilized
Purity of macorolide compound 11107B ([4]; HP-β-CD concentration 10 mg/mL, stored one month at 40° C.): 99.76 ± 0.08%
Purity of macorolide compound 11107B ([4]; HP-β-CD concentration 10 mg/mL, stored one month at 60° C.): 98.60 ± 0.06%
Purity of macorolide compound 11107B ([4]; HP-β-CD concentration 10 mg/mL, stored one month at −20° C.): 99.73 ± 0.01%
Purity of macorolide compound 11107B ([4]; HP-β-CD concentration 200 mg/mL, stored one month at 40° C.): 99.82 ± 0.02%
Purity of macorolide compound 11107B ([4]; HP-β-CD concentration 200 mg/mL, stored one month at 60° C.): 98.90 ± 0.05%
Purity of macorolide compound 11107B ([4]; HP-β-CD concentration 200 mg/mL, stored one month at −20° C.): 99.70 ± 0.00%
Purity of macorolide compound 11107B ([4]; HP-β-CD not added, stored one month at 40° C.): 98.17 ± 0.12%
Purity of macorolide compound 11107B ([4]; HP-β-CD not added, stored one month at 60° C.): 94.63 ± 0.11%
Purity of macorolide compound 11107B ([4]; HP-β-CD not added, stored one month at −20° C.): 99.56 ± 0.01%
